In test [1] the test system is SAR genes, WIR2 (PR5) and WCI3. The experiment in a line: Time-course Northern blot analysis of SAR gene induction in glyphosate tolerant wheat. The settings on record: leaf tissues of glyphosate tolerant wheat; INA 200 ppm in 0.1% surfactant blank.
Test [2] has as its system leaf rust spores (Puccinia triticina). The experiment in a line: Leaf rust infection of treated glyphosate tolerant wheat in the SAR study. The settings on record: glyphosate tolerant wheat inoculated one day after treatment; WeatherMAX 0.75 lb/acre, INA 200 ppm. It counts as in vivo.

As for `O=C(O)c1cc(Cl)nc(Cl)c1` [INA, 2,6-dichloro isonicotinic acid], in test [1], the “WCI3 gene induction (Northern blot)” value is “induced”. Moreover, the “leaf rust infection / resistance” value in test [2] was “did not confer leaf rust resistance”.

Values taken from patent publication US10575526B2 (priority 2004, dated 2020).
